How the values were obtained:
Type in all cases: cell-based
[1] = tested on: pAKT in SKBR3 (PI3Kα wild type) cells; assay: Inhibition of pAKT (alphaLISA Surefire Ultra AKT 1/2/3 pS473) in SKBR3 cells; conditions: Homo sapiens, SK-BR-3, approximately 24 hours treatment, read-out: SKBR3 (WT) pAKT IC50
Description: The ability of a compound of Formula (I) to inhibit the formation of pAKT was measured using alphaLISA Surefire Ultra AKT 1/2/3 (pS473) Assay Kit (#ALSU-PAKT-B50K) was obtained from Perkin Elmer (Waltham, MA).
To prepare assay plates for pAKT alphaLISA assays, cells were trypsinized, resuspended in fresh media, and viable cells were counted utilizing trypan blue exclusion. Prior to seeding, cells were washed with PBS and resuspended in HBSS (Gibco, #14025092). T47D (12,000/w), SKBR3 (12,000/w), or MKN1 (24,000/w) cells were seeded at 12 μl per well in a solid white flat bottom 384 cell culture plate (Perkin Elmer #6007680).
Immediately after seeding, cells were dosed using an Echo Liquid Handler (Beckman Coulter) with compounds at a 10.4 μm starting concentration and serially diluted (1:4) for a total of 10 concentrations. […] Plates were then imaged the following day using a CLARIOstar microplate reader (BMG Labtech, Germany).
Percent of control values were calculated by subtracting the average signal from the positive control (alpelisib) treated wells from all treated wells (including DMSO control wells) and then divided by the average signal from the vehicle DMSO treated control wells. Percent of vehicle control values were plotted as log(inhibitor) vs. response—Variable slope (four parameters) for curve fitting and IC50 values were determined using XLfit.

[2] = tested on: T47D (PI3Kα H1047R mutant) cells; assay: Cell viability (CellTiter-Glo 2.0) in T47D cells; conditions: Homo sapiens, T47D, 72 h, approximately 72 hours
Summary of the method: (§1)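 IC50 values derive from four-parameter fits of CellTiter-Glo luminescence expressed as percent of vehicle control. Cells (T47D or SKBR3) were plated at 1000/well the day before dosing and incubated about 72 h at 37° C with a 10-point, 1:4 series starting at 10 μm.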

[3] = tested on: pAKT in T47D (PI3Kα H1047R mutant) cells; assay: Inhibition of pAKT (alphaLISA Surefire Ultra AKT 1/2/3 pS473) in T47D cells; conditions: Homo sapiens; T47D (PI3Kα H1047R mutant) cells, 24 hr compound incubation, alphaLISA pS473; read-out: T47D (H1047R) pAKT 24 hr (IC50)
Summary of the method: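 AlphaLISA read-out of AKT pS473 in lysates after roughly 24 h compound exposure at 37° C in HBSS. Ten concentrations, 1:4 dilutions from a 10.4 μm top dose. Percent of control uses alpelisib at 3.125 μm as background and DMSO as vehicle; four-parameter curve gives IC50.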

[4] = tested on: SKBR3 (PI3Kα wild type) cells; assay: Cell viability (CellTiter-Glo 2.0) in SKBR3 cells; conditions: Homo sapiens, SK-BR-3; SKBR3 (PI3Kα wild type) cells, approximately 72 hours, CellTiter-Glo 2.0; read-out: SKBR3 (WT) Viability IC50
Summary of the method: as §1

SMILES: Cc1cc(C(C)Nc2ccccc2C(=O)O)c2nc(N3CCCCC3)c(C#N)nc2c1 (stereo not shown) [Example 1, 2-((1-(2-cyano-7-methyl-3-(piperidin-1-yl)quinoxalin-5-yl)ethyl)amino)benzoic acid]
- IC50 [1]: > 10000 nM
- IC50 [2]: 456 nM
- IC50 [3]: 39 nM
- IC50 [4]: > 10000 nM

SMILES: Cc1cc([C@@H](C)Nc2ccc(Cl)nc2C(=O)O)c2nc(N3CCC[C@H]([C@H](C)O)C3)c(C#N)nc2c1 [Example 261A, 6-chloro-3-(((R)-1-(2-cyano-3-((S)-3-((S)-1-hydroxyethyl)piperidin-1-yl)-7-methylquinoxalin-5-yl)ethyl)amino)picolinic acid]
- IC50 [2]: 79 nM
- IC50 [3]: 3.2 nM
- IC50 [4]: > 10000 nM

SMILES: Cc1cc([C@@H](C)Nc2ccc(Cl)nc2C(=O)O)c2nc(N3CCC[C@H]([C@@H](C)O)C3)c(C#N)nc2c1 [Example 261B, 6-chloro-3-(((R)-1-(2-cyano-3-((S)-3-((R)-1-hydroxyethyl)piperidin-1-yl)-7-methylquinoxalin-5-yl)ethyl)amino)picolinic acid]
- IC50 [2]: 98 nM
- IC50 [3]: 2.6 nM
- IC50 [4]: > 10000 nM

SMILES: Cc1cc([C@@H](C)Nc2ccc(Cl)nc2C(=O)O)c2nc(N3CCC[C@@H]([C@H](C)O)C3)c(C#N)nc2c1 [Example 261C, 6-chloro-3-(((R)-1-(2-cyano-3-((R)-3-((S)-1-hydroxyethyl)piperidin-1-yl)-7-methylquinoxalin-5-yl)ethyl)amino)picolinic acid]
- IC50 [2]: 78 nM
- IC50 [3]: 2.1 nM
- IC50 [4]: > 10000 nM

SMILES: Cc1cc([C@@H](C)Nc2ccc(Cl)nc2C(=O)O)c2nc(N3CCC[C@@H]([C@@H](C)O)C3)c(C#N)nc2c1 [Example 261D, 6-chloro-3-(((R)-1-(2-cyano-3-((R)-3-((R)-1-hydroxyethyl)piperidin-1-yl)-7-methylquinoxalin-5-yl)ethyl)amino)picolinic acid]
- IC50 [2]: 76 nM
- IC50 [3]: 1.2 nM
- IC50 [4]: > 10000 nM

SMILES: Cc1cc([C@@H](C)Nc2ccc(Cl)nc2C(=O)O)c2nc(N3CCCC(F)(F)CC3)c(C#N)nc2c1 [Example 847, (R)-6-chloro-3-((1-(2-cyano-3-(4,4-difluoroazepan-1-yl)-7-methylquinoxalin-5-yl)ethyl)amino)picolinic acid]
- IC50 [2]: 59 nM
- IC50 [3]: 1.8 nM
- IC50 [4]: 4940 nM

SMILES: Cc1cc([C@@H](C)Nc2ccc(Cl)nc2C(=O)O)c2nc(N3C[C@H]4CSC[C@H]4C3)c(C#N)nc2c1 [Example 848, 6-chloro-3-(((R)-1-(2-cyano-7-methyl-3-cis-tetrahydro-1h-thieno[3,4-c]pyrrol-5(3H)-ylquinoxalin-5-yl)ethyl)amino)picolinic acid]
- IC50 [2]: 90 nM
- IC50 [3]: 1.7 nM
- IC50 [4]: 7680 nM
